Consider seven molecules from patent US12016876B2, “Micro-RNAs and compositions comprising same for the treatment and diagnosis of serotonin-, adrenalin-, noradrenalin-, glutamate-, and corticotropin-releasing hormone- associated medical conditions” (Yeda Research and Development Co. Ltd., priority 2011, dated 2024).

The subject of data set [1] is miR-19a. Put plainly: miR-19a levels in PFC after Reboxetine. It is filed as in vivo, mice. The procedure: (§1) Mice received i.p. injection of tricyclic-Imipramine, or SSRI-Fluoxetine, or NRI-Reboxetine (20 mg/kg in saline) or saline.
(§2) These animals will be also tested for anxiety like behavior, locomotor activity and memory performance. Furthermore, the levels of expression of miR-19a and miR-19b are examined in different regions of interest (E.G the hippocampus, amygdala and forebrain) following an acute and chronic systemic treatment with the Noradrenaline reuptake inhibitor Reboxetine in WT mice.

In data set [2] the test system is miR-19b. Put plainly: miR-19b levels in PFC after Reboxetine. It is filed as in vivo, mice. On the procedure: as §1, §2
Data set [3] has as its system miR-135a. In words: miR-135a levels after antidepressant treatment, real time PCR. The note with it: for miR-135a levels in the RN: acute or chronic administration, 20 mg/kg i.p. Background: Real-time PCR tracks product formation cycle by cycle.
The subject of data set [4] is miR-135b. Put plainly: miR-135b levels after antidepressant treatment, real time PCR. The note with it: for miR-135b levels in the RN: acute or chronic administration, 20 mg/kg i.p.
In data set [5] the test system is Slc6a4 3′UTR. Put plainly: Luciferase reporter assay, Slc6a4 3′UTR, HEK293T cells. The note with it: for repression of Slc6a4 3′UTR luciferase reporter: miR over-expressing vector vs empty vector, HEK293T; for repression with Slc6a4 3′UTR mutated in miR-135 seed match: mutated 3′UTR lacking miR-135 seed match. The format is cell-based, mouse. The source says: (§3) 3′UTR sequences of Slc6a4, Htr1a, MaoA and Tph2 were PCR amplified from mouse genomic DNA, or total brain cDNA. 3′UTR PCR fragments were ligated into pGEM-T easy vector (Promega) according to the manufacturer's guidelines, and further subcloned into a single NotI site at the 3′ end of luciferase in the Psicheck2 reporter plasmid (Promega). Mutated 3′ UTR sequences, lacking miR-135 seed sequences, were synthesized with primers overhangs across the seed match sequence. Cloning orientation was verified by diagnostic cuts and by sequencing.
(§4) HEK293T cells were grown on poly-L-lysine in 48-well format to a 70-85% confluence and transfected using Polyethyleneimine with the following plasmids: 5 ng of Psicheck2-3′UTR plasmid and 215 ng of over-expressing vector for a specific miRNA, or empty-miR-vec over-expression plasmids. 24 hours following transfection cells were lysed and luciferase reporters activity were assayed as previously described [Chen A. et al. Mol Endocrinol (2005) 19: 441-58]. Renilla luciferase values were normalized to control firefly luciferase levels (transcribed from the same vector but not affected by 3′UTR tested) and averaged across six well repetitions per condition.
On the technique in general: A reporter such as luciferase makes a cellular process visible.

Data set [6] relates to Htr1a 3′UTR. In words: Luciferase reporter assay, Htr1a 3′UTR, HEK293T cells. The format is cell-based, mouse. The note with it: for seed matches through which Htr1a 3′UTR is repressed: Htr1a miR-135 seed matches mutated individually or both; for repression of Htr1a 3′UTR luciferase reporter: miR over-expressing vector vs empty vector, HEK293T.
Source text: as §3, §4
3′UTR sequence of Htr1a was PCR amplified from mouse genomic DNA. 3′UTR PCR fragments were ligated into pGEM-T easy vector (Promega) according to the manufacturer's guidelines, and further subcloned into a single NotI site at the 3′ end of luciferase in the Psicheck2 reporter plasmid (Promega). Cloning orientation was verified by diagnostic cuts and by sequencing.
as §4, with “plasmids:” for “plasmids: 5 ng of”, “Psicheck2-3′UTR plasmid, pre-mmu-miR-182 over-expression in pEGFP” for “Psicheck2-3′UTR”, “plasmid” for “plasmid and 215 ng of over-expressing vector for a specific miRNA,”, “pEGFP plasmid alone (clontech).” for “empty-miR-vec over-expression plasmids.”

Data set [7] deals with mice. In words: Forced swim test. It is filed as in vivo. On the procedure:
The […] was performed as previously described [Krishnan V and Nestler E J, Nature (2008) 455: 894-902]. In short, the apparatus used was a plastic bucket, 18 cm of diameter, filled with 25° C. water to a depth of 15 cm. Each mouse was placed in the center of the bucket to initiate a 6 minutes video recorded test session. The duration of time spent immobile during the 2-6 minute of testing was automatically scored using Eto Vision XT (Noldus, Wageningen, Netherlands).

Data set [8] relates to mice. Put plainly: Tail suspension test. It is filed as in vivo. The procedure:
The tail suspension test was performed in the TSE Tail Suspension Monitor (TSE Systems, Bad Homburg, Germany). Each mouse was taped by the tip of its tail, and suspended from the force sensor for 10 minutes. Time spent immobile and time spent struggling were calculated and recorded by the software based on pre-set thresholds.

The subject of data set [9] is mice. Put plainly: Home cage locomotor activity. It is filed as in vivo. The note with it: lentiviral miR-135b over-expression in RN. The procedure: To control for the possibility of behavioral effects originating from differences in ambulatory movement, locomotor activity of mice was examined over a 48 hours period, which proceeded a few days of habituation. Mice were single housed in specialized home cages and locomotion was measured using the InfraMot system (TSE Systems, Bad Hamburg, Germany).

Data set [10] deals with miR-135b. Put plainly: Lentiviral over-expression of miR-135b in RN, real time PCR. To be noted: lentiviruses over-expressing miR-135b injected into RN, vs control lentiviruses.
Data set [11] relates to Dscam 3′UTR. In words: Luciferase assay, Dscam 3′UTR, N2a cells. The format is cell-based. The source says: (§5) Using a luciferase assay, eleven predicted target genes of miR182, chosen after extensive bioinformatics, were examined (FIG. 27A).
Data set [12] concerns L1cam 3′UTR. In words: Luciferase assay, L1cam 3′UTR, N2a cells. It is filed as cell-based. The procedure: as §5
(§6) Similar verification for Dscam and Htr1a with mutated 3′UTR are performed.

In data set [13] the test system is Tsnax 3′UTR. Put plainly: Luciferase assay, Tsnax 3′UTR, N2a cells. It is filed as cell-based. On the procedure: as §5, §6
The subject of data set [14] is miR-182. Put plainly: miR-182 over-expression lentiviruses in N2a cell line, real time PCR. The note with it: N2a cells infected with over-expression lentiviruses vs control.
The mark [15] stands for this setting: chronic administration (18 days).
The mark [16] stands for this setting: acute and chronic administration.

For `CCOc1ccccc1OC(c1ccccc1)C1CNCCO1` (stereo not drawn) [Reboxetine], the “miR-19a levels in the PFC” value in data set [1] (acute administration (once)) is “down regulated”; in data set [1] (setting [15]), “upregulated”. Also, the “miR-19b levels in the PFC” value in [2] (acute administration (once)) was “down regulated”; in data set [2] (setting [15]) it was “upregulated”. Moreover, the entries for the “miR135a levels in the AMY” value in data set [3] (acute administration) and in data set [3] (chronic administration) were “upregulated” and “not by chronic administration”, respectively. The “miR135a levels in the PFC” value in data set [3] (acute administration) was “not significantly altered”. The “miR-135a levels in the RN” value in data set [3] is “not”. Moreover, the “miR135b levels in the AMY” value is “upregulated” in data set [4] (acute administration) and “not by chronic administration” in data set [4] (chronic administration). Also, in data set [4] (acute administration), the “miR135b levels in the PFC” value is recorded as “upregulated”. Further, the “miR-135b levels in the RN” value in data set [4] was “unaltered”.
As to `CN(C)CCCN1c2ccccc2CCc2ccccc21` [Imipramine], the “miR-135a levels in the RN” value in [3] is “increased”. Also, the “miR-135b levels in the RN” value in [4] is “increased”.
Turning to “miR-135a: microRNA over-expressed from a vector; SEQ ID NO: 24 (AGUGUAUCCUUAUUUUUCGGUAU; listed as Mus musculus)”, in data set [5], the “repression of Slc6a4 3′UTR luciferase reporter” value was “approximately 30%” and the “repression with Slc6a4 3′UTR mutated in miR-135 seed match” value is given as “fully blocked”. Also, in [6], the “seed matches through which Htr1a 3′UTR is repressed” value is “via the distal and not the proximal seed match”; the “repression of Htr1a 3′UTR luciferase reporter” value is “approximately 30%”.
Regarding `CNCCC(Oc1ccc(C(F)(F)F)cc1)c1ccccc1` (stereo not drawn) [Fluoxetine], the “immobility time, forced swim test” value in data set [7] (SSRI treatment, miR135KD and control KD mice) is listed as “reduced”. For the same molecule, the “immobility time, tail suspension test” value in data set [8] (SSRI treatment vs basal, miR135KD and control KD mice) is recorded as “decrease in immobility time”. For the same molecule, in data set [3] (acute administration), the “miR135a levels in the AMY” value was “upregulated” and the “miR135a levels in the PFC” value was “not significantly altered”. Further, the “circulating miR-135a levels in plasma” value in data set [3] (setting [16]) is listed as “robust decrease”. For the same molecule, the “miR-135a levels in the RN” value in data set [3] is on record as “robust increase”. Also, in data set [3] (chronic administration), the “miR135a levels in the AMY” value is reported as “not by chronic administration” and the “miR135a levels in the PFC” value was “decreased”. In addition, in data set [4] (acute administration), the “miR135b levels in the AMY” value is “upregulated” and the “miR135b levels in the PFC” value is “upregulated”. Also, in data set [4] (setting [16]), the “circulating miR-135b levels in plasma” value is “no effect”. For the same molecule, the “miR-135b levels in the RN” value in [4] is on record as “unaltered”. For the same molecule, in [4] (chronic administration), the “miR135b levels in the AMY” value is “not by chronic administration” and the “miR135b levels in the PFC” value is listed as “decreased”.
Take “miR-135b: microRNA over-expressed from plasmid or neuron-specific lentivirus (pre-miR-135b); SEQ ID NO: 26 (AGUGUAUCCUUACUUUUCGGUAU; listed as Mus musculus)”: in [5], the “repression of Slc6a4 3′UTR luciferase reporter” value is “approximately 50%” and the “repression with Slc6a4 3′UTR mutated in miR-135 seed match” value is listed as “fully blocked”. Besides, in [6], the “seed matches through which Htr1a 3′UTR is repressed” value is given as “via both predicted sites” and the “repression of Htr1a 3′UTR luciferase reporter” value is “approximately 50%”. Moreover, the “immobility time, forced swim test” value in data set [7] (lentiviral miR-135b over-expression in RN, after chronic social defeat) was “reduced immobility time”. In addition, the “immobility time, tail suspension test” value in data set [8] (lentiviral miR-135b over-expression in RN, after chronic social defeat, last 5 min) is given as “reduced immobility time”. Moreover, in [9], the home cage locomotion entry is “without any observed change”. Also, in data set [10], the “induction of miR-135b levels in RN” value is recorded as 10 fold.

B1: miR-182: pre-mmu-miR-182 over-expression in pEGFP plasmid or lentiviruses (nucleic acid, listed as Homo sapiens)
chain 1: GAGCUGCUUGCCUCCCCCCGUUUUUGGCAAUGGUAGAACUCACACUGGUGAGGUAACAGGAUCCGGUGGUUCUAGACUUGCCAACUAUGGGGCGAGGACUCAGCCGGCAC
chain 2: UUUGGCAAUGGUAGAACUCACACCG
As for B1, the “repression of Htr1a 3′UTR luciferase reporter” value in data set [6] is recorded as “strong repression”. Also, the “effect on Dscam 3′UTR luciferase” value in [11] is “represoric effect”. In data set [12] (N2a cells), the “effect on L1cam 3′UTR luciferase” value is “represoric effect”. For the same molecule, in data set [12] (mutated 3′UTR), the “effect on L1cam 3′UTR with mutated seed match” value was “abolished”. The “effect on Tsnax 3′UTR luciferase” value in data set [13] (N2a cells) is “represoric effect”. Moreover, the “effect on Tsnax 3′UTR with mutated seed match” value in [13] (mutated 3′UTR) was “abolished”. For the same molecule, the “miR-182 levels in infected cells” value in data set [14] was “increased miR-182 levels”.

B2: miR-335: microRNA over-expressed from a vector (nucleic acid, listed as Homo sapiens)
chain 1: UGUUUUGAGCGGGGGUCAAGAGCAAUAACGAAAAAUGUUUGUCAUAAACCGUUUUUCAUUAUUGCUCCUGACCUCCUCUCAUUUGCUAUAUUCA
chain 2: UCAAGAGCAAUAACGAAAAAUGU
Regarding B2, the “repression of Htr1a 3′UTR luciferase reporter” value in [6] is “significant repression”.
